The conditions of data set [1]: rcm bond.
For data set [2] the following is noted: from C=CCOC1(C)CCN(c2c([C@H](OC(C)(C)C)C(=O)OC)c(C)nc3cc(-c4cccc(-c5cc(CC)ccc5O[C@@H](C)CC=C)c4)nn23)CC1; rcm bond; 20-membered ring; Hoveyda-Grubbs II (name truncated)/CuI; DCE; 1.09 mM; 3.0 h.
In another data set the test system is NL-RLuc virus. As to the kind of experiment: Inhibition of HIV replication (NL-RLuc luciferase reporter virus in MT-2 cells). It is filed as cell-based. To be noted: Human immunodeficiency virus 1, MT2, 120 h.

Molecules are shown by their SMILES. pEC50: −log10 of the molar value. Where two headings read alike, the source gives them in different places.

In data set [1] (from C=CCOC1(C)CCN(c2c([C@H](OC(C)(C)C)C(=O)OC)c(C)nc3cc(-c4cccc(-c5c(F)cc(C)cc5O[C@@H](C)CC=C)c4)nn23)CC1, 20-membered ring, Ru-SIMes catalyst (name truncated), 3.0 h), `COC(=O)[C@@H](OC(C)(C)C)c1c(C)nc2cc3nn2c1N1CCC(C)(CC1)OC/C=C/C[C@H](C)Oc1cc(C)cc(F)c1-c1cccc-3c1` registered a ring closure, isolated yield of 78%.
In the case of `CCc1ccc2c(c1)-c1cccc(c1)-c1cc3nc(C)c([C@H](OC(C)(C)C)C(=O)OC)c(n3n1)N1CCC(C)(CC1)OCC=CC[C@H](C)O2`, the ring closure, crude yield in data set [2] was 92%.
As to `CCOC(=O)[C@@H](OC(C)(C)C)c1c(C)nc2cc3nn2c1N1CCC(C)(CC1)OC/C=C/[C@H](C)Oc1cc(C)cc(F)c1-c1cccc-3c1`, in data set [1] (from C=CCOC1(C)CCN(c2c([C@H](OC(C)(C)C)C(=O)OCC)c(C)nc3cc(-c4cccc(-c5c(F)cc(C)cc5O[C@@H](C)C=C)c4)nn23)CC1, 19-membered ring, Grubbs II (0.1 eq)/CuI, DCE, 1.09 mM, 2.0 h), the ring closure, isolated yield is 72%.
The compound `CCOC(=O)[C@@H](OC(C)(C)C)c1c(C)nc2cc3nn2c1N1CCC(C)(CC1)OC/C=C/C(C)Oc1cc(F)ccc1-c1cccc-3c1` (stereo partly drawn) had a ring closure, isolated yield in data set [1] (from C=CCOC1(C)CCN(c2c([C@H](OC(C)(C)C)C(=O)OCC)c(C)nc3cc(-c4cccc(-c5ccc(F)cc5O[C@@H](C)C=C)c4)nn23)CC1, 19-membered ring, Grubbs II (0.1 eq)/CuI, DCE, 1.27 mM, 2.0 h) of 96%.
`COC(=O)[C@@H](OC(C)(C)C)c1c(C)nc2cc3nn2c1N1CCC(C)(CC1)OCC=CC[C@H](C)Oc1cc(F)cc(F)c1-c1cccc-3c1`: in data set [1] (from C=CCOC1(C)CCN(c2c([C@H](OC(C)(C)C)C(=O)OC)c(C)nc3cc(-c4cccc(-c5c(F)cc(F)cc5O[C@@H](C)CC=C)c4)nn23)CC1, 20-membered ring, Hoveyda-Grubbs II (2 x 0.05 eq), toluene, 1.26 mM, 80.0 °C, 3.0 h), the ring closure, isolated yield is 48%.
`CCOC(=O)[C@@H](OC(C)(C)C)c1c(C)nc2cc3nn2c1N1CCC(C)(CC1)OC/C=C/[C@H](C)Oc1cc(C)ccc1-c1cccc-3c1`: the ring closure, isolated yield in data set [1] (from C=CCOC1(C)CCN(c2c([C@H](OC(C)(C)C)C(=O)OCC)c(C)nc3cc(-c4cccc(-c5ccc(C)cc5O[C@@H](C)C=C)c4)nn23)CC1, 19-membered ring, Grubbs II (0.1 eq)/CuI, DCE, 1.32 mM, 2.0 h) was determined as 69.5%.
Consider `Cc1nc2cc3nn2c(c1[C@H](OC(C)(C)C)C(=O)O)N1CCC(C)(CCCCCC(C)Oc2ccc(C(N)=O)cc2-c2cccc-3c2)CC1` (stereo in doubt) [Example 24, (2S)-2-(tert-butoxy)-2-[(22S)-17-carbamoyl-4,22,28-trimethyl-21-oxa-1,5,7,8-tetraazahexacyclo[26.2.2.1^6,9.1^10,14.0^2,7.0^15,20]tetratriaconta-2,4,6(34),8,10(33),11,13,15(20),16,18-decaen-3-yl]acetic acid], for which, in the data set with NL-RLuc virus, the pEC50 was 8.40.
For `CCOC(=O)[C@@H](OC(C)(C)C)c1c(C)nc2cc3nn2c1N1CCC(C)(CC1)OC/C=C/[C@H](C)Oc1ccc(C)c(F)c1-c1cccc-3c1`, the ring closure, isolated yield in data set [1] (from C=CCOC1(C)CCN(c2c([C@H](OC(C)(C)C)C(=O)OCC)c(C)nc3cc(-c4cccc(-c5c(O[C@@H](C)C=C)ccc(C)c5F)c4)nn23)CC1, 19-membered ring, Grubbs II (0.1 eq)/CuI, DCE, 1.33 mM, 2.0 h) worked out at 94%.
`CCOC(=O)[C@@H](OC(C)(C)C)c1c(C)nc2cc3nn2c1N1CCC(C)(CC1)OC/C=C/[C@H](C)Oc1ccc(F)cc1-c1cccc-3c1` came in with a ring closure, isolated yield in data set [1] (from C=CCOC1(C)CCN(c2c([C@H](OC(C)(C)C)C(=O)OCC)c(C)nc3cc(-c4cccc(-c5cc(F)ccc5O[C@@H](C)C=C)c4)nn23)CC1, 19-membered ring, Grubbs II (0.1 eq)/CuI, DCE, 1.36 mM, 2.0 h) of 67.3%.
In the data set on NL-RLuc virus, `CCc1ccc2c(c1)-c1cccc(c1)-c1cc3nc(C)c([C@H](OC(C)(C)C)C(=O)O)c(n3n1)N1CCC(C)(CC1)OCCCC[C@H](C)O2` [Example 7, (2S)-2-(tert-Butoxy)-2-[(22S)-17-ethyl-4,22,28-trimethyl-21,27-dioxa-1,5,7,8-tetraazahexacyclo[26.2.2.1^6,9.1^10,14.0^2,7.0^15,20]tetratriaconta-2,4,6(34),8,10(33),11,13,15(20),16,18-decaen-3-yl]acetic acid] showed a pEC50 of 7.54.
The same measure, in the same setting: the same measure for `Cc1ccc2c(c1)O[C@@H](C)/C=C/COC1(C)CCN(CC1)c1c([C@H](OC(C)(C)C)C(=O)O)c(C)nc3cc(nn13)-c1cccc-2c1` [Example 15, (2S)-2-(tert-Butoxy)-2-[(22S,23E)-4,18,22,27-tetramethyl-21,26-dioxa-1,5,7,8-tetraazahexacyclo[25.2.2.1^6,9.1^10,14.0^2,7.0^15,20]tritriaconta-2,4,6(33),8,10(32),11,13,15(20),16,18,23-undecaen-3-yl]acetic acid]: 8.10.
The compound `CCOC(=O)[C@@H](OC(C)(C)C)c1c(C)nc2cc3nn2c1N1CCC(C)(CC1)OCC=CC[C@H](C)Oc1ccc(C(=O)OC)cc1-c1cccc-3c1` displayed a ring closure, isolated yield in data set [1] (from C=CCOC1(C)CCN(c2c([C@H](OC(C)(C)C)C(=O)OCC)c(C)nc3cc(-c4cccc(-c5cc(C(=O)OC)ccc5O[C@@H](C)CC=C)c4)nn23)CC1, 20-membered ring, Hoveyda-Grubbs II (0.1 eq)/CuI, DCE, 1.52 mM, 80.0 °C, 3.0 h) of 83%.
Compound `Cc1ccc2c(c1)O[C@@H](C)CCCOC1(C)CCN(CC1)c1c([C@H](OC(C)(C)C)C(=O)O)c(C)nc3cc(nn13)-c1cccc-2c1` [Example 16, (2S)-2-(tert-Butoxy)-2-[(22S)-4,18,22,27-tetramethyl-21,26-dioxa-1,5,7,8-tetraazahexacyclo[25.2.2.1^6,9.1^10,14.0^2,7.0^15,20]tritriaconta-2,4,6(33),8,10(32),11,13,15(20),16,18-decaen-3-yl]acetic acid] gave a pEC50 in the data set with NL-RLuc virus of 8.10.
The same measure, in the same setting: the value for `Cc1nc2cc3nn2c(c1[C@H](OC(C)(C)C)C(=O)O)N1CCC(C)(CC1)OC/C=C/[C@H](C)Oc1ccc(F)cc1-c1cccc-3c1` [Example 13, (2S)-2-(tert-Butoxy)-2-[(22S,23E)-17-fluoro-4,22,27-trimethyl-21,26-dioxa-1,5,7,8-tetraazahexacyclo[25.2.2.1^6,9.1^10,14.0^2,7.0^15,20]tritriaconta-2,4,6(33),8,10(32),11,13,15(20),16,18,23-undecaen-3-yl]acetic acid] was 8.40; that for `Cc1nc2cc3nn2c(c1[C@H](OC(C)(C)C)C(=O)O)N1CCC(C)(CC1)OCCCC[C@H](C)Oc1cc(F)ccc1-c1cc-3ccc1F` [Example 28, (2S)-2-(tert-Butoxy)-2-[(22S)-13,18-difluoro-4,22,28-trimethyl-21,27-dioxa-1,5,7,8-tetraazahexacyclo[26.2.2.1^6,9.1^10,14.0^2,7.0^15,20]tetratriaconta-2,4,6(34),8,10(33),11,13,15(20),16,18-decaen-3-yl]acetic acid] was 7.57; that for `Cc1cc(F)c2c(c1)O[C@@H](C)C/C=C/COC1(C)CCN(CC1)c1c([C@H](OC(C)(C)C)C(=O)O)c(C)nc3cc(nn13)-c1cccc-2c1` [Example 4, (2S)-2-(tert-Butoxy)-2-[(22S,24E)-16-fluoro-4,18,22,28-tetramethyl-21,27-dioxa-1,5,7,8-tetraazahexacyclo[26.2.2.1^6,9.1^10,14.0^2,7.0^15,20]tetratriaconta-2,4,6(34),8,10(33),11,13,15(20),16,18,24-undecaen-3-yl]acetic acid] was 7.64.
Still for that read-out and setting: the same measure for `Cc1nc2cc3nn2c(c1[C@H](OC(C)(C)C)C(=O)O)N1CCC(C)(CC1)OC/C=C/[C@H](C)Oc1cc(F)ccc1-c1cccc-3c1` [Example 9, (2S)-2-(tert-Butoxy)-2-[(23E)-18-fluoro-4,22,27-trimethyl-21,26-dioxa-1,5,7,8-tetraazahexacyclo[25.2.2.1^6,9.1^10,14.0^2,7.0^15,20]tritriaconta-2,4,6(33),8,10(32),11,13,15(20),16,18,23-undecaen-3-yl]acetic acid]: 8.22; for `Cc1nc2cc3nn2c(c1[C@H](OC(C)(C)C)C(=O)O)N1CCC(C)(CCC=CCC(C)Oc2ccc(C#N)cc2-c2cccc-3c2)CC1` (stereo in doubt) [Example 22, (2S)-2-(tert-Butoxy)-2-[(22S)-17-cyano-4,22,28-trimethyl-21-oxa-1,5,7,8-tetraazahexacyclo[26.2.2.1^6,9.1^10,14.0^2,7.0^15,20]tetratriaconta-2,4,6(34),8,10(33),11,13,15(20),16,18,24-undecaen-3-yl]acetic acid]: 7.89.

The values above are taken from patent US10125148B2, “Pyrazolopyrimidine macrocycles as inhibitors of human immunodeficiency virus replication” (priority 2014, dated 2018).
